In patent US5470833A, “Endothelin antagonistic peptide derivatives” (Banyu Pharmaceutical Co., Ltd., priority 1990, dated 1995):
Read-outs that look alike come from different tables or passages of the source. Numbered stars: 1 amine (or outer) side, 2 acyl side, 3 side chain; on linkers, the order of the positions; unused ones are H or OH. Square brackets hold non-standard residues; d marks the D form. Peptide text beside a SMILES is read from it. * marks the point of attachment. d(β3hF) = N[C@@H](CC(=O)O)Cc1ccccc1; dPhg = N[C@@H](C(=O)O)c1ccccc1; d(β3hA) = C[C@@H](N)CC(=O)O; Nva = CCC[C@H](N)C(=O)O; PhAc = O=C(Cc1ccccc1)*; Boc = CC(C)(C)OC(=O)*; Aib = CC(C)(N)C(=O)O; CO = O=C([*:1])[*:2]; Piv = CC(C)(C)C(=O)*; OBn = c1ccc(CO*)cc1; NHtBu = CC(C)(C)N*; βAla = NCCC(=O)O; NHiPr = CC(C)N*

Biological target: T1, endothelin receptor (membrane of smooth muscle tissue of porcine aorta) (Sus scrofa, UniProt Q29010)
T1 construct: from tissue; host or cells: porcine aorta smooth muscle, membrane fraction
T1 sequence (Q29010 21-427): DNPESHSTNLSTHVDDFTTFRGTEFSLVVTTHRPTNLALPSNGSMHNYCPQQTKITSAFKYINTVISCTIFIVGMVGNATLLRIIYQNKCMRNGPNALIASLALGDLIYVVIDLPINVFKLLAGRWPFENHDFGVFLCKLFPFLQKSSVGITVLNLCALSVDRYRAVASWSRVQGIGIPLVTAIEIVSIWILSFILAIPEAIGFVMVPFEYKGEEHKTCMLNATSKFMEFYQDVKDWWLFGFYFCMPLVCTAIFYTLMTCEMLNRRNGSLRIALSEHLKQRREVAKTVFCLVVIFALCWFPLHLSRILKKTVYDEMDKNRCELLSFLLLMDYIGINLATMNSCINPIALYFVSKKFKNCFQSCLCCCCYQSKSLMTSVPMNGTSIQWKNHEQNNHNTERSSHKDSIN
Assay: Endothelin binding inhibition test (125I-endothelin-1, porcine aorta smooth muscle membrane)
Settings: read-out: 125I-endothelin-1 binding inhibition; for inhibition at 10 µM: 10 μM test compound (marked *)
Method: The smooth muscle tissue of porcine aorta was homogenized in a buffer solution of 10 mM MOPS, pH 7.4, at 4° C. by a polytron. To the homogenate, sucrose was added to a concentration of 20%, and the mixture was centrifuged at 1,000×g for 15 minutes, and the supernatant was further centrifuged at 10,000×g for 15 minutes. The supernatant thereof was further centrifuged at 90,000×g for 40 minutes. The membrane precipitate thereby obtained was suspended in a buffer solution of 5 mM HEPES/Tris, pH 7.4, at a concentration of 25 mg/ml.
Then, 16 μl of this membrane suspension was added to 340 μl of 50 mM Tris/HCl buffer, pH 7.4, containing 10 μM calcium chloride, 10 μM magnesium chloride, 0.1 mM PMSF, 1 μM pepstatin A, 2 μM leupeptin, 1 mM 1,10-phenanthroline and 0.1% bovine serum albumin. To this suspension, 4 μl of (A) endothelin-1 (for nonspecific binding; 0.2 μM as the final concentration), (B) buffer solution A (for total control binding), or (C) a test compound (1.1 μM or 10 μM as the final concentration),was added. Further, to each suspension, 40 μl of ^125 I-endothelin-1 (12000-18000 cpm) was added. These mixtures were incubated at 25° C. for 4 hours, then subjected to filtration on a glass filter GF/C and then washed with 5 mM HEPES/Tris, pH 7.4, containing 0.3% bovine serum albumin. Then, the radioactivity trapped by the glass filter was measured, and the ^125 I-endothelin-1 binding inhibition D (%) at 1.1 μM or 10 μM of the test compound was determined by the following equation. [formula] Each test was performed in triplicate.
The test compounds are indicated by Compound Nos.

Row | SMILES | inhibition at 1.1 µM (1.1 μM test compound (no mark)) [%] | also measured
1 | CC(C)C[C@H](NC(=O)C(C)(C)C)C(=O)N[C@H](Cc1c[nH]c2ccccc12)C(=O)NCCC(=O)O [Compound 69] (Piv-Leu-[dW]-[βAla]-OH) | – | inhibition at 10 µM: 71%
2 | CC(C)C[C@H](NC(=O)N1CCCCCC1)C(=O)N[C@H](Cc1c[nH]c2ccccc12)C(=O)N[C@H](Cc1c[nH]cn1)C(=O)O [Compound 48] | 82 | –
3 | CC(C)C[C@H](NC(=O)OC(C)(C)C)C(=O)N[C@H](Cc1c[nH]c2ccccc12)C(=O)N[C@H](CO)C(=O)O [Compound 7] (Boc-Leu-[dW]-[dS]-OH) | 35 | –
4 | COC(=O)C(C(=O)N[C@@H](CC(C)C)C(=O)N[C@H](Cc1c[nH]c2ccccc12)C(=O)NCCC(=O)O)=C1SC=CS1 [Compound 66] | 77 | –
5 | CC(C)C[C@H](NC(=O)OC(C)(C)C)C(=O)N[C@H](Cc1c[nH]c2ccccc12)C(=O)N[C@@H](CC(=O)O)C(N)=O [Compound 38] (Boc-Leu-[dW]-Asp-NH2) | 22 | –
6 | COC(=O)[C@@H](Cc1c[nH]c2ccccc12)NC(=O)[C@@H](Cc1c[nH]c2ccccc12)NC(=O)[C@H](CC(C)C)NC(=O)N1CCCCCC1 [Compound 49] | 85 | –
7 | CC(C)C[C@H](NC(=O)OC(C)(C)C)C(=O)N[C@H](Cc1c[nH]c2ccccc12)C(=O)N[C@@H](CC(=O)OCc1ccccc1)C(N)=O [Compound 37] (Boc-Leu-[dW]-Asp(OBn)-NH2) | – | inhibition at 10 µM: 29%
8 | CC(C)C[C@H](NC(=O)OC(C)(C)C)C(=O)N[C@H](Cc1c[nH]c2ccccc12)C(=O)N[C@@H](CC(=O)O)Cc1ccccc1 [Compound 20] (Boc-Leu-[dW]-[d(β3hF)]-OH) | 44 | –
9 | CC(C)C[C@H](NC(=O)N1CCCCCC1)C(=O)N[C@H](Cc1c[nH]c2ccccc12)C(=O)NCCS(=O)(=O)O [Compound 53] | 86 | –
10 | CCC[C@H](NC(=O)OC(C)(C)C)C(=O)N[C@H](Cc1c[nH]c2ccccc12)C(=O)NCCC(=O)O [Compound 28] (Boc-[Nva]-[dW]-[βAla]-OH) | 38 | –
11 | CC(C)C[C@H](NC(=O)OC(C)(C)C)C(=O)N[C@H](Cc1c[nH]c2ccccc12)C(=O)NCCC(=O)O [Compound 29] (Boc-Leu-[dW]-[βAla]-OH) | 69 | –
12 | CC(C)C[C@H](NC(=O)OC(C)(C)C)C(=O)N[C@H](Cc1c[nH]c2ccccc12)C(=O)NNCC(=O)O [Compound 148] | – | inhibition at 10 µM: 82%
13 | CC(C)C[C@H](NC(=O)NC(C)C)C(=O)N[C@H](Cc1c[nH]c2ccccc12)C(=O)NCC(=O)O [Compound 89] ({NHiPr-CO}-Leu-[dW]-Gly-OH) | – | inhibition at 10 µM: 55%
14 | CC(C)C[C@H](NC(=O)OC(C)(C)C)C(=O)N[C@H](Cc1c[nH]c2ccccc12)C(=O)N[C@H](C)C(=O)O [Compound 41] (Boc-Leu-[dW]-[dA]-OH) | 65 | –
15 | CC(C)C[C@H](NC(=O)OC(C)(C)C)C(=O)N[C@H](Cc1c[nH]c2ccccc12)C(=O)NC(CC(=O)O)c1ccccc1 (stereo partly drawn) [Compound 14] | 64 | –
16 | CC(C)C[C@H](NC(=O)NN1CCCC1)C(=O)N[C@H](Cc1c[nH]c2ccccc12)C(=O)NCCC(=O)O [Compound 152] | – | inhibition at 10 µM: 58%
17 | CC(C)C[C@H](OC(=O)C1CCCCCC1)C(=O)N[C@H](Cc1c[nH]c2ccccc12)C(=O)N[C@H](Cc1c[nH]c2ccccc12)C(=O)O [Compound 201] | – | inhibition at 1.1 µM: 69%
18 | CC(C)C[C@H](NC(=O)OC(C)(C)C)C(=O)N[C@H](Cc1c[nH]c2ccccc12)C(=O)NN(CC(=O)O)CC(=O)O [Compound 147] | – | inhibition at 10 µM: 57%
19 | CC(C)C[C@H](NC(=O)OC(C)(C)C)C(=O)N[C@H](Cc1c[nH]c2ccccc12)C(=O)NCC(=O)O [Compound 31] (Boc-Leu-[dW]-Gly-OH) | 45 | –
20 | CC(C)C[C@H](NC(=O)OC(C)(C)C)C(=O)N[C@H](Cc1c[nH]c2ccccc12)C(=O)N[C@H](CCC(N)=O)C(=O)O [Compound 10] (Boc-Leu-[dW]-[dQ]-OH) | 32 | –
21 | CC(C)C[C@H](NC(=O)OC(C)(C)C)C(=O)N[C@H](Cc1c[nH]c2ccccc12)C(=O)NC(C)(C)C(=O)O [Compound 13] (Boc-Leu-[dW]-[Aib]-OH) | 39 | –
22 | Cc1nc[nH]c1CSC[C@@H](NC(=O)[C@@H](Cc1c[nH]c2ccccc12)NC(=O)[C@H](CC(C)C)NC(=O)OC(C)(C)C)C(=O)O [Compound 22] | – | inhibition at 10 µM: 36%
23 | CC(C)C[C@H](NC(=O)OC(C)(C)C)C(=O)N[C@H](Cc1c[nH]c2ccccc12)C(=O)N[C@H](CC(=O)OCc1ccccc1)C(N)=O [Compound 35] (Boc-Leu-[dW]-[dD](OBn)-NH2) | 35 | –
24 | CC(C)C[C@H](NC(=O)OC(C)(C)C)C(=O)N[C@H](Cc1c[nH]c2ccccc12)C(=O)N[C@H](Cc1ccccc1)C(=O)O [Compound 39] (Boc-Leu-[dW]-[dF]-OH) | 75 | –
25 | CC(C)C[C@H](NC(=O)C=C1SC=CS1)C(=O)N[C@H](Cc1c[nH]c2ccccc12)C(=O)NCCC(=O)O [Compound 67] | 63 | –
26 | CC(C)C[C@H](NC(=O)N(C)C)C(=O)N[C@H](Cc1c[nH]c2ccccc12)C(=O)NCCC(=O)O [Compound 73] ({NMe2-CO}-Leu-[dW]-[βAla]-OH) | – | inhibition at 10 µM: 61%
27 | CC(C)C[C@H](NC(=O)OC(C)(C)C)C(=O)N[C@H](Cc1c[nH]c2ccccc12)C(=O)N[C@@H](C(=O)O)c1ccccc1 [Compound 40] (Boc-Leu-[dW]-[dPhg]-OH) | 36 | –

Continued, in another order:

Row | inhibition at 1.1 µM (1.1 μM test compound (no mark)) [%] | SMILES | also measured
28 | 86 | CC(C)C[C@H](NC(=O)N1CCCCCC1)C(=O)N[C@H](Cc1c[nH]c2ccccc12)C(=O)N[C@H](C)CS(=O)(=O)O [Compound 160] | –
29 | 32 | CC(C)C[C@H](NC(=O)N1CCCCCC1)C(=O)N[C@H](Cc1c[nH]c2ccccc12)C(=O)NCCC(=O)N(C)C [Compound 136] | –
30 | 73 | CC(C)C[C@H](NC(=O)NC(C)(C)C)C(=O)N[C@H](Cc1c[nH]c2ccccc12)C(=O)N[C@H](C)CC(=O)O [Compound 80] ({NHtBu-CO}-Leu-[dW]-[d(β3hA)]-OH) | –
31 | 85 | CC(C)C[C@H](NC(=O)N1CCCCCC1)C(=O)N[C@H](Cc1cn(C=O)c2ccccc12)C(=O)N[C@H](C)CC(=O)O [Compound 132] | –
32 | 77 | CC(C)C[C@H](NC(=O)NC(C)(C)C)C(=O)N[C@H](Cc1c[nH]c2ccccc12)C(=O)NCCC(=O)O [Compound 85] ({NHtBu-CO}-Leu-[dW]-[βAla]-OH) | –
33 | 72 | CC(C)C[C@H](NC(=O)OC(C)(C)C)C(=O)N[C@H](Cc1c[nH]c2ccccc12)C(=O)N[C@H](Cc1ccc(O)cc1)C(=O)O [Compound 138] (Boc-Leu-[dW]-[dY]-OH) | –
34 | 66 | CC(C)C[C@H](NC(=O)N1CCCCCC1)C(=O)N[C@H](CC1C(=O)Nc2ccccc21)C(=O)N[C@H](C)CC(=O)O (stereo partly drawn) [Compound 139] | –
35 | 70 | CC(C)C[C@@H](C(=O)N[C@H](Cc1c[nH]c2ccccc12)C(=O)N[C@H](Cc1c[nH]c2ccccc12)C(=O)O)N1C(=O)CN(C2CCCC2)C1=O [Compound 155] | –
36 | 52 | CC(C)C[C@H](NC(=O)N(C)c1ccccc1)C(=O)N[C@H](Cc1c[nH]c2ccccc12)C(=O)NCCC(=O)O [Compound 76] | –
37 | 76 | CC(C)C[C@H](NC(=O)N1CCCCCC1)C(=O)N[C@H](Cc1c[nH]c2ccccc12)C(=O)NN1CCC[C@@H]1C(=O)O [Compound 163] | –
38 | 32 | CC(C)C[C@H](NC(=O)Cc1ccccc1)C(=O)N[C@H](Cc1c[nH]c2ccccc12)C(=O)NCCC(=O)O [Compound 70] (PhAc-Leu-[dW]-[βAla]-OH) | –
39 | 76 | CC(C)C[C@H](NC(=O)NC(C)(C)C)C(=O)N[C@H](Cc1c[nH]c2ccccc12)C(=O)N[C@H](Cc1c[nH]cn1)C(=O)O [Compound 82] ({NHtBu-CO}-Leu-[dW]-[dH]-OH) | –
40 | 81 | CC(C)C[C@H](NC(=O)N(C(C)C)C(C)C)C(=O)N[C@H](Cc1c[nH]c2ccccc12)C(=O)NCCC(=O)O [Compound 119] | –
41 | 32 | CNC(=O)CCNC(=O)[C@@H](Cc1c[nH]c2ccccc12)NC(=O)[C@H](CC(C)C)NC(=O)N1CCCCCC1 [Compound 134] | –
42 | 57 | CC(C)C[C@H](NC(=O)N1CCCCCC1)C(=O)N[C@H](Cc1c[nH]c2ccccc12)C(=O)NCCC(=O)NS(C)(=O)=O [Compound 158] | –
